From PubChem BioAssay (NCI)
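Grown in 96-well plates, cells were treated for 48 hours with each compound at five concentrations. Insufficient inhibition: endpoint recorded as highest concentration tested. Definition used: TGI = concentration required for complete inhibition of growth.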

How the values were obtained:
Assay in all cases: NCI anticancer screen, dose series, 48 h
786-0 renal = system: 786-0 renal
A498 renal = system: A498 renal
A549 NSCLC = system: A549 NSCLC
ACHN renal = system: ACHN renal
BT-549 breast = system: BT-549 breast
CAKI-1 renal = system: CAKI-1 renal
CCRF-CEM leukemia = system: CCRF-CEM leukemia
COLO 205 colon = system: COLO 205 colon
DU-145 prostate = system: DU-145 prostate
EKVX NSCLC = system: EKVX NSCLC
HCC-2998 colon = system: HCC-2998 colon
HCT-116 colon = system: HCT-116 colon
HCT-15 colon = system: HCT-15 colon
HL-60(TB) leukemia = system: HL-60(TB) leukemia
HOP-62 NSCLC = system: HOP-62 NSCLC
HOP-92 NSCLC = system: HOP-92 NSCLC
HS 578T breast = system: HS 578T breast
HT29 colon = system: HT29 colon
IGROV1 ovarian = system: IGROV1 ovarian
K-562 leukemia = system: K-562 leukemia
KM12 colon = system: KM12 colon
LOX IMVI melanoma = system: LOX IMVI melanoma
M14 melanoma = system: M14 melanoma
MALME-3M melanoma = system: MALME-3M melanoma
MCF7 breast = system: MCF7 breast
MDA-MB-231 breast = system: MDA-MB-231 breast
MDA-MB-435 = system: MDA-MB-435
MDA-N = system: MDA-N
MOLT-4 leukemia = system: MOLT-4 leukemia
NCI-H226 lung = system: NCI-H226 lung
NCI-H23 lung = system: NCI-H23 lung
NCI-H460 lung = system: NCI-H460 lung
NCI-H522 lung = system: NCI-H522 lung
NCI/ADR-RES ovarian = system: NCI/ADR-RES ovarian
OVCAR-3 ovarian = system: OVCAR-3 ovarian
OVCAR-4 ovarian = system: OVCAR-4 ovarian
OVCAR-5 ovarian = system: OVCAR-5 ovarian
OVCAR-8 ovarian = system: OVCAR-8 ovarian
PC-3 prostate = system: PC-3 prostate
RPMI-8226 leukemia = system: RPMI-8226 leukemia
RXF 393 renal = system: RXF 393 renal
SF-268 CNS = system: SF-268 CNS
SF-295 CNS = system: SF-295 CNS
SF-539 CNS = system: SF-539 CNS
SK-MEL-2 melanoma = system: SK-MEL-2 melanoma
SK-MEL-28 melanoma = system: SK-MEL-28 melanoma
SK-MEL-5 melanoma = system: SK-MEL-5 melanoma
SK-OV-3 ovarian = system: SK-OV-3 ovarian
SN12C renal = system: SN12C renal
SNB-19 CNS = system: SNB-19 CNS
SNB-75 CNS = system: SNB-75 CNS
SR leukemia = system: SR leukemia
SW-620 colon = system: SW-620 colon
T-47D breast = system: T-47D breast
TK-10 renal = system: TK-10 renal
U251 CNS = system: U251 CNS
UACC-257 melanoma = system: UACC-257 melanoma
UACC-62 melanoma = system: UACC-62 melanoma
UO-31 renal = system: UO-31 renal

Compound: CC1=C(O)c2ccccc2C(=O)C1=O
- TGI (786-0 renal): > 100 µM
- TGI (A498 renal): > 100 µM
- TGI (A549 NSCLC): > 100 µM
- TGI (ACHN renal): > 100 µM
- TGI (BT-549 breast): 99.3 µM
- TGI (CAKI-1 renal): > 100 µM
- TGI (CCRF-CEM leukemia): > 100 µM
- TGI (COLO 205 colon): > 100 µM
- TGI (DU-145 prostate): > 100 µM
- TGI (EKVX NSCLC): > 100 µM
- TGI (HCC-2998 colon): > 100 µM
- TGI (HCT-116 colon): > 100 µM
- TGI (HCT-15 colon): > 100 µM
- TGI (HL-60(TB) leukemia): > 100 µM
- TGI (HOP-62 NSCLC): > 100 µM
- TGI (HOP-92 NSCLC): > 100 µM
- TGI (HS 578T breast): > 100 µM
- TGI (HT29 colon): > 100 µM
- TGI (IGROV1 ovarian): > 100 µM
- TGI (K-562 leukemia): > 100 µM
- TGI (KM12 colon): > 100 µM
- TGI (LOX IMVI melanoma): > 100 µM
- TGI (M14 melanoma): > 100 µM
- TGI (MALME-3M melanoma): > 100 µM
- TGI (MCF7 breast): > 100 µM
- TGI (MDA-MB-231 breast): > 100 µM
- TGI (MDA-MB-435): > 100 µM
- TGI (MDA-N): > 100 µM
- TGI (MOLT-4 leukemia): > 100 µM
- TGI (NCI-H226 lung): > 100 µM
- TGI (NCI-H23 lung): > 100 µM
- TGI (NCI-H460 lung): > 100 µM
- TGI (NCI-H522 lung): > 100 µM
- TGI (NCI/ADR-RES ovarian): > 100 µM
- TGI (OVCAR-3 ovarian): > 100 µM
- TGI (OVCAR-4 ovarian): > 100 µM
- TGI (OVCAR-5 ovarian): > 100 µM
- TGI (OVCAR-8 ovarian): > 100 µM
- TGI (PC-3 prostate): > 100 µM
- TGI (RPMI-8226 leukemia): > 100 µM
- TGI (RXF 393 renal): > 100 µM
- TGI (SF-268 CNS): > 100 µM
- TGI (SF-295 CNS): > 100 µM
- TGI (SF-539 CNS): > 100 µM
- TGI (SK-MEL-2 melanoma): > 100 µM
- TGI (SK-MEL-28 melanoma): > 100 µM
- TGI (SK-MEL-5 melanoma): > 65.1 µM
- TGI (SK-OV-3 ovarian): > 100 µM
- TGI (SN12C renal): > 100 µM
- TGI (SNB-19 CNS): > 100 µM
- TGI (SNB-75 CNS): > 100 µM
- TGI (SR leukemia): > 100 µM
- TGI (SW-620 colon): > 100 µM
- TGI (T-47D breast): > 100 µM
- TGI (TK-10 renal): > 100 µM
- TGI (U251 CNS): > 90.9 µM
- TGI (UACC-257 melanoma): > 100 µM
- TGI (UACC-62 melanoma): > 100 µM
- TGI (UO-31 renal): > 65.3 µM
